Tests used:
Settings in all cases: 1 mM ATP; inhibitor
[1] = biological target: ERN1 (Homo sapiens, UniProt O75460)
Protocol: (§1) Kinase selectivity panel Kinome profiling was conducted by AssayQuant Technologies (Marlboro, MA) using Sox chromophore technology and Sox-based peptide substrates developed for human kinases in a 384-well format. Compounds were tested at 1 µM in the presence of 1 mM ATP.

[2] = biological target: MAP3K5 (Homo sapiens, UniProt Q99683)
Protocol: as §1

[3] = biological target: EPHB4 (Homo sapiens, UniProt P54760)
Protocol: as §1

[4] = biological target: FGFR1 (Homo sapiens, UniProt P11362)
Protocol: as §1

[5] = biological target: STK24/MST3 (Homo sapiens, UniProt Q9Y6E0)
Protocol: as §1

[6] = biological target: TNK1 (Homo sapiens, UniProt Q13470)
Protocol: as §1

[7] = biological target: TSSK3 (Homo sapiens, UniProt Q96PN8)
Protocol: as §1

[8] = biological target: PAK4 (Homo sapiens, UniProt O96013)
Protocol: as §1

[9] = biological target: EPHA5 (Homo sapiens, UniProt P54756)
Protocol: as §1

[10] = biological target: RPS6KB2/P70S6KB (Homo sapiens, UniProt Q9UBS0)
Protocol: as §1

[11] = biological target: DYRK2 (Homo sapiens, UniProt Q92630)
Protocol: as §1

[12] = biological target: CAMK2B (Homo sapiens, UniProt Q13554)
Protocol: as §1

[13] = biological target: PASK (Homo sapiens, UniProt Q96RG2)
Protocol: as §1

[14] = biological target: JAK2(JH1JH2) (Homo sapiens, UniProt O60674)
Protocol: as §1

[15] = biological target: SLK (Homo sapiens, UniProt Q9H2G2)
Protocol: as §1

[16] = biological target: CDC42BPB/MRCKB (Homo sapiens, UniProt Q9Y5S2)
Protocol: as §1

[17] = biological target: FGFR4 (Homo sapiens, UniProt P22455)
Protocol: as §1

[18] = biological target: CSNK1D/CK1D (Homo sapiens, UniProt P48730)
Protocol: as §1

[19] = biological target: MAK (Homo sapiens, UniProt P20794)
Protocol: as §1

[20] = biological target: T1, DRAK2 (Homo sapiens, UniProt O94768)
T1 construct: gene STK17B
Protocol: as §1

[21] = biological target: CDK6/D1 (Homo sapiens, UniProt Q00534)
Protocol: as §1

[22] = biological target: TAOK1 (Homo sapiens, UniProt Q7L7X3)
Protocol: as §1

[23] = biological target: RPS6KA2/RSK3 (Homo sapiens, UniProt Q15349)
Protocol: as §1

[24] = biological target: MAPK9/JNK2 (Homo sapiens, UniProt P45984)
Protocol: as §1

[25] = biological target: EPHB2 (Homo sapiens, UniProt P29323)
Protocol: as §1

[26] = biological target: NTRK1 (Homo sapiens, UniProt P04629)
Protocol: as §1

[27] = biological target: T2, LYNA (Homo sapiens, UniProt P07948)
T2 construct: gene LYN
Protocol: as §1

[28] = biological target: CHEK2/CHK2 (Homo sapiens, UniProt O96017)
Protocol: as §1

[29] = biological target: HIPK2 (Homo sapiens, UniProt Q9H2X6)
Protocol: as §1

[30] = biological target: EIF2AK4/GCN2 (Homo sapiens, UniProt Q9P2K8)
Protocol: as §1

[31] = biological target: ABL1 (Homo sapiens, UniProt P00519)
Protocol: as §1

[32] = biological target: PRKACG (Homo sapiens, UniProt P22612)
Protocol: as §1

[33] = biological target: ERN2 (Homo sapiens, UniProt Q76MJ5)
Protocol: as §1

[34] = biological target: LATS1 (Homo sapiens, UniProt O95835)
Protocol: as §1

[35] = biological target: MYO3A (Homo sapiens, UniProt Q8NEV4)
Protocol: as §1

[36] = biological target: CDC42BPG/DMPK2 (Homo sapiens, UniProt Q6DT37)
Protocol: as §1

[37] = biological target: NUAK1 (Homo sapiens, UniProt O60285)
Protocol: as §1

[38] = biological target: MAP3K1 (Homo sapiens, UniProt Q13233)
Protocol: as §1

[39] = biological target: PIM2 (Homo sapiens, UniProt Q9P1W9)
Protocol: as §1

Sequence of RPS6KA2/RSK3 (Q15349 whole entry): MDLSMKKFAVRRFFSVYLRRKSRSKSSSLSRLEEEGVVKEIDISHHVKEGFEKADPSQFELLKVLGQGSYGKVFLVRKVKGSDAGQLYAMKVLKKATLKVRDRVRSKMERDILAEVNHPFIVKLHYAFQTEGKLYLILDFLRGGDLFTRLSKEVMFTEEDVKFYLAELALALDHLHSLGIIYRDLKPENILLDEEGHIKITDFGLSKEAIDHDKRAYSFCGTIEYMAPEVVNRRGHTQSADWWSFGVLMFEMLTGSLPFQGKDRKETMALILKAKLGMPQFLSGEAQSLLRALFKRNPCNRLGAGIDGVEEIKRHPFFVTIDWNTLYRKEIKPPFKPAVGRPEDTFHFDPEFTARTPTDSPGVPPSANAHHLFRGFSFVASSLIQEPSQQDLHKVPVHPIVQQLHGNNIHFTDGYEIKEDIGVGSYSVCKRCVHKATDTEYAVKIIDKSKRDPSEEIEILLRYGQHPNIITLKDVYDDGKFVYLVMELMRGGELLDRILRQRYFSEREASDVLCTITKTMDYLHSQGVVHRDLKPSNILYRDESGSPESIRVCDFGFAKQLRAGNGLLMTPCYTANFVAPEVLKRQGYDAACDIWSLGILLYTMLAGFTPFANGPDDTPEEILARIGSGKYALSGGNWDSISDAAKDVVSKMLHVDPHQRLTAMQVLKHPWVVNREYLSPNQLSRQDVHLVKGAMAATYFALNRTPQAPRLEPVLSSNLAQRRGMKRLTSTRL
Sequence of CSNK1D/CK1D (P48730 whole entry): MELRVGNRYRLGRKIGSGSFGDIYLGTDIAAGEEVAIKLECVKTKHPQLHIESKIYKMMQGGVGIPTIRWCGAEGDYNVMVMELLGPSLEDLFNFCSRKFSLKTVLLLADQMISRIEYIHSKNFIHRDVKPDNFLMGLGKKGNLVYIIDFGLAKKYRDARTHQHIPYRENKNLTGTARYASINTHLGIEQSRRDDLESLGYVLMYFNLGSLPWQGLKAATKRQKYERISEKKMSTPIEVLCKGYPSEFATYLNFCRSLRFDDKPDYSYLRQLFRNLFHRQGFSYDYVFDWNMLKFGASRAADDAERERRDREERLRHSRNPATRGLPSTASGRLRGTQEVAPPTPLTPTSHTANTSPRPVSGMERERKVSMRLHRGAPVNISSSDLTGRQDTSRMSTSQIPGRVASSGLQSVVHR
Sequence of HIPK2 (Q9H2X6 whole entry): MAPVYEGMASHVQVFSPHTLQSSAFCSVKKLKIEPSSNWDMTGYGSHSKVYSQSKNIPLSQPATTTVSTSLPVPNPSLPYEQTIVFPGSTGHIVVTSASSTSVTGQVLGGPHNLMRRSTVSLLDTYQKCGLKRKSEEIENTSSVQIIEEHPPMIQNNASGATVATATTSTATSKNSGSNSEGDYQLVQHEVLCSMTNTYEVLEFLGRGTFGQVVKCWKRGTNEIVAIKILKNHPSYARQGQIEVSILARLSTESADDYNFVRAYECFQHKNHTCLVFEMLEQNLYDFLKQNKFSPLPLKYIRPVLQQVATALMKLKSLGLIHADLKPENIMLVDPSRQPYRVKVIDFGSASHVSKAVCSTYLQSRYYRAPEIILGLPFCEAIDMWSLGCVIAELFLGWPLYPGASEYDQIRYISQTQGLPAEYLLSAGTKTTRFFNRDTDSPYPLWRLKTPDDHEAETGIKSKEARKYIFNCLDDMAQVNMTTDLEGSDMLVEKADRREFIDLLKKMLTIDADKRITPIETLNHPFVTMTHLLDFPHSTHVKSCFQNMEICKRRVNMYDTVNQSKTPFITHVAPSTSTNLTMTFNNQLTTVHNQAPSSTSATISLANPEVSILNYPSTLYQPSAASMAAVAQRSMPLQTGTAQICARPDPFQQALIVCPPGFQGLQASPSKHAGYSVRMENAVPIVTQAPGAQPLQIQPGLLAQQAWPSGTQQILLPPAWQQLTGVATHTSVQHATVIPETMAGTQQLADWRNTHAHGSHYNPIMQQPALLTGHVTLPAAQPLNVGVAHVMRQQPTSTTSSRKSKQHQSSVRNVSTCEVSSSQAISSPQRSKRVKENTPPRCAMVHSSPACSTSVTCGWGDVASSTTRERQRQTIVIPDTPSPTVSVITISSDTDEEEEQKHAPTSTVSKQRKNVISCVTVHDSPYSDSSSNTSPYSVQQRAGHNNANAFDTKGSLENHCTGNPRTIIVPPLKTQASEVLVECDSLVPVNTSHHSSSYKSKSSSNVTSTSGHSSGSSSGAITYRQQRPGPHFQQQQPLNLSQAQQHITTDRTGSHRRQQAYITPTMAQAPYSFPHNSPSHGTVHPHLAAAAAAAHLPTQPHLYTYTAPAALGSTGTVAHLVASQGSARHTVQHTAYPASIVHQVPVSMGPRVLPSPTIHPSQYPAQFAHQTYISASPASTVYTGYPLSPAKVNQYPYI
Sequence of PAK4 (O96013 whole entry): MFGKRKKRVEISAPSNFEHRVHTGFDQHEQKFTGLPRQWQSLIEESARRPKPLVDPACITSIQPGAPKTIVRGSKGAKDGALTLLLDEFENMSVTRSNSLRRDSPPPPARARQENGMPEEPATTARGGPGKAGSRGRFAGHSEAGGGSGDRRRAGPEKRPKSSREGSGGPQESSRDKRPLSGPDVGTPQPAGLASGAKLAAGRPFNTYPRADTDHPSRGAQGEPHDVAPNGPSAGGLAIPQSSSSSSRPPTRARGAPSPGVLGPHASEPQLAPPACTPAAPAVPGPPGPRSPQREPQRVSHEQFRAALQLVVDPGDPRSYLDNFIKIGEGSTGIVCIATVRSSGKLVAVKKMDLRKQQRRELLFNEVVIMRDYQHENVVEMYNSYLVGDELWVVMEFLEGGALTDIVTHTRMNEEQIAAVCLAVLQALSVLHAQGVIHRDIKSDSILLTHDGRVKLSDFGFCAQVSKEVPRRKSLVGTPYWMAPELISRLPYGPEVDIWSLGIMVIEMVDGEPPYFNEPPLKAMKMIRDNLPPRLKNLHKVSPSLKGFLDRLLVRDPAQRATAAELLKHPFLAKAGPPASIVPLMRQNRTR
Sequence of ABL1 (P00519 whole entry): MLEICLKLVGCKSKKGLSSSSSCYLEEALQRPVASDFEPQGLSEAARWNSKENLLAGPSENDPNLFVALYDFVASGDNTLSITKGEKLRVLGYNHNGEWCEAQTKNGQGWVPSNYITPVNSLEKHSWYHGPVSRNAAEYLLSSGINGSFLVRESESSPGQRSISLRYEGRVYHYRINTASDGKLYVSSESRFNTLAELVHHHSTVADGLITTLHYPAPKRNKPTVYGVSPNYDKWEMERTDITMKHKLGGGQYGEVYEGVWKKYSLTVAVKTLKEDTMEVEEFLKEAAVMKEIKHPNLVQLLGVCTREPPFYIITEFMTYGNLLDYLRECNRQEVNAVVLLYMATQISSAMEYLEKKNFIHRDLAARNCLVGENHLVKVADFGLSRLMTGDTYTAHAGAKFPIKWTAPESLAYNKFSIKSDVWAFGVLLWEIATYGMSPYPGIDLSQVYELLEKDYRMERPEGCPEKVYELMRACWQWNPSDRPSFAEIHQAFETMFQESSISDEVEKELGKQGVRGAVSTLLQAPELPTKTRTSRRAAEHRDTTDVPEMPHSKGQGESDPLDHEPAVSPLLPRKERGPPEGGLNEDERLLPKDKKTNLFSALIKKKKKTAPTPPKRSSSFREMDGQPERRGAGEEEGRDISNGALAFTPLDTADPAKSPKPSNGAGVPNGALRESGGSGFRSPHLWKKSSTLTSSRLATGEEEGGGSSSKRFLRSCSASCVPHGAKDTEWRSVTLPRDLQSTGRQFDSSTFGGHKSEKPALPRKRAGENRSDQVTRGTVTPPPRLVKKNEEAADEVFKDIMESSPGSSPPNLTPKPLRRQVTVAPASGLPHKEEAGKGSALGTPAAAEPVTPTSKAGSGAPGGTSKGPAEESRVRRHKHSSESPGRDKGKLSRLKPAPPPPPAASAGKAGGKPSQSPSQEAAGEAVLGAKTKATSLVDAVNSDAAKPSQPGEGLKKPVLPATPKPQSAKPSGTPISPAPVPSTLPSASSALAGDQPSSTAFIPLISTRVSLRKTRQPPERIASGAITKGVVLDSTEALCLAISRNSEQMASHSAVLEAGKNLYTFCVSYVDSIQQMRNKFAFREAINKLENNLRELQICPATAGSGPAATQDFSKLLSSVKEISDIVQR
Sequence of NUAK1 (O60285 whole entry): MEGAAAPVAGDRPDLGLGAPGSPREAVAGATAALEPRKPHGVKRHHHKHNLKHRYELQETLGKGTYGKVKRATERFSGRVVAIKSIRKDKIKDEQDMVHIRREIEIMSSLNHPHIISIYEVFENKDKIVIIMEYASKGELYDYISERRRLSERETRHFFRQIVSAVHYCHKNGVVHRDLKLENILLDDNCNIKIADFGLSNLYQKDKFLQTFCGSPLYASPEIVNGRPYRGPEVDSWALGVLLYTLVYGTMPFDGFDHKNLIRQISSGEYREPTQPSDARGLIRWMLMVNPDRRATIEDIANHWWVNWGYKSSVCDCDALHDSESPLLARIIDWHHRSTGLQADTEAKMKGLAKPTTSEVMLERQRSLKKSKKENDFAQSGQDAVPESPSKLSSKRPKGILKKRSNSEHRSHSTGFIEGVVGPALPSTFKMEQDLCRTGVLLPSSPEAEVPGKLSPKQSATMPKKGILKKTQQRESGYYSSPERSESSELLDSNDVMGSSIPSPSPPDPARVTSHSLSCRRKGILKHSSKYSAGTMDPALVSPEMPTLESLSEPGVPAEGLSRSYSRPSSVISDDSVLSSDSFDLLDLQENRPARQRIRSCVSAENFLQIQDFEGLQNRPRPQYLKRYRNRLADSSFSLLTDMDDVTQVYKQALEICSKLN
Sequence of TSSK3 (Q96PN8 whole entry): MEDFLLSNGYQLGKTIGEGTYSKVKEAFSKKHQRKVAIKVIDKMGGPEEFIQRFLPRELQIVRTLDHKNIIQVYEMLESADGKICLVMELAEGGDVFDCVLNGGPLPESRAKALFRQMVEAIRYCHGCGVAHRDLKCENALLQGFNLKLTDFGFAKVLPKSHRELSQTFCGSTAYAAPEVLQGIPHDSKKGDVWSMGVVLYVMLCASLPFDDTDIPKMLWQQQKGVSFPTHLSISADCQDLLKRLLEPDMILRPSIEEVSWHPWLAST

## C=CC(=O)N1CCC[C@@H](n2nc(-c3ccc(Oc4ccccc4)cc3)c3c(N)ncnc32)C1 [Ibrutinib]
[1]
  1 µM GBD00276 (ibrutinib), % inhibition: 1.571%
[2]
  1 µM GBD00276 (ibrutinib), % inhibition: -3.817%
[3]
  1 µM GBD00276 (ibrutinib), % inhibition: 10.75%
[4]
  1 µM GBD00276 (ibrutinib), % inhibition: 21.97%
[5]
  1 µM GBD00276 (ibrutinib), % inhibition: -20.41%
[6]
  1 µM GBD00276 (ibrutinib), % inhibition: -7.554%
[7]
  1 µM GBD00276 (ibrutinib), % inhibition: -3.43%
[8]
  1 µM GBD00276 (ibrutinib), % inhibition: 3.525%
[9]
  1 µM GBD00276 (ibrutinib), % inhibition: -3.884%
[10]
  1 µM GBD00276 (ibrutinib), % inhibition: -2.111%
[11]
  1 µM GBD00276 (ibrutinib), % inhibition: 14.5%
[12]
  1 µM GBD00276 (ibrutinib), % inhibition: 4.39%
[13]
  1 µM GBD00276 (ibrutinib), % inhibition: 16.95%
[14]
  1 µM GBD00276 (ibrutinib), % inhibition: 14.99%
[15]
  1 µM GBD00276 (ibrutinib), % inhibition: -2.298%
[16]
  1 µM GBD00276 (ibrutinib), % inhibition: -15.12%
[17]
  1 µM GBD00276 (ibrutinib), % inhibition: 19.57%
[18]
  1 µM GBD00276 (ibrutinib), % inhibition: 12.82%
[19]
  1 µM GBD00276 (ibrutinib), % inhibition: 9.929%
[20]
  1 µM GBD00276 (ibrutinib), % inhibition: 1.899%
[21]
  1 µM GBD00276 (ibrutinib), % inhibition: 3.427%
[22]
  1 µM GBD00276 (ibrutinib), % inhibition: 0.7765%
[23]
  1 µM GBD00276 (ibrutinib), % inhibition: 22.45%
[24]
  1 µM GBD00276 (ibrutinib), % inhibition: -5.789%
[25]
  1 µM GBD00276 (ibrutinib), % inhibition: 8.665%
[26]
  1 µM GBD00276 (ibrutinib), % inhibition: 11.58%
[27]
  1 µM GBD00276 (ibrutinib), % inhibition: 35.64%
[28]
  1 µM GBD00276 (ibrutinib), % inhibition: -10.68%
[29]
  1 µM GBD00276 (ibrutinib), % inhibition: 1.01%
[30]
  1 µM GBD00276 (ibrutinib), % inhibition: -3.934%
[31]
  1 µM GBD00276 (ibrutinib), % inhibition: -21.62%
[32]
  1 µM GBD00276 (ibrutinib), % inhibition: -12.39%
[33]
  1 µM GBD00276 (ibrutinib), % inhibition: 3.601%
[34]
  1 µM GBD00276 (ibrutinib), % inhibition: 11.97%
[35]
  1 µM GBD00276 (ibrutinib), % inhibition: -10.26%
[36]
  1 µM GBD00276 (ibrutinib), % inhibition: -2.51%
[37]
  1 µM GBD00276 (ibrutinib), % inhibition: -1.079%
[38]
  1 µM GBD00276 (ibrutinib), % inhibition: -9.45%
[39]
  1 µM GBD00276 (ibrutinib), % inhibition: -3.683%

— PMC10337138 (Acta Neuropathologica Communications, 2023)
